Where two headings read alike, the source gives them in different places.
Columns and labels:
[1] = system: VEGF protein expression level in HepG2 cell line; assay: VEGF ELISA in HepG2 cell culture supernatant; type: cell-based, human; parameters: concentration or dose not given beside the values; conditions: compared to control
Experimental: (§1) Total protein was assayed using the method described by Bradford. The VEGF ELISA Assay Kit (VEGF) and ELISA Kit, (#VGF31-[…]) were purchased from (Eagle Biosciences CO., LTD, Amherst, NH, USA). The kit is a sandwich enzyme immunoassay for the in vitro quantitative determination of VEGF concentrations in cell culture supernates, serum and plasma according to the manufacturer's instructions.

[2] = system: VEGF gene expression level in HepG2 cell line; assay: Real-time PCR of VEGF gene expression, HepG2; type: cell-based, human; conditions: HepG2, 3 days of treatment, compared to control, in words
Experimental: RT-PCR was applied to evaluate the VEGF gene expression level. Briefly, total RNA was extracted, and the extracted total RNA concentration was determined using a NanoDrop 2000 spectrophotometer (Thermo Fisher, Waltham, MA, USA). To determine the relative expression levels, the 2^−ΔΔCT method was used. NCBI/Primer Blast was used to define the primer sequences. The experiments were performed in quadruplicate. The primer sequences of VEGF and β-actin genes are listed below: […]

[3] = system: VEGF protein expression level in MCF-7 cell line; assay: VEGF ELISA in MCF-7 cell culture supernatant; type: cell-based, human; parameters: concentration or dose not given beside the values; conditions: MCF-7, ELISA, compared to control
Experimental: as §1

A-549 cell line = assay: MTT cytotoxicity assay, A-549; type: cell-based; conditions: Homo sapiens, A549, read-out: IC50 A-549 Lung Carcinoma
Excerpt: (§2) • HepG2 [HEPG2] (ATCC® HB-8065™, Manassas, VA, USA) epithelial hepatocellular carcinoma was derived from the liver tissue of a person (a well-differentiated hepatocellular carcinoma). The human HCC cell line, HEPG-2, was obtained from the American Type Culture Collection and used to evaluate the effects of the following drugs. MCF-7(ATCC® HTB-22™, Manassas, VA, USA) breast cancer cells were derived from mammary gland or breast at a metastatic site. The human MCF-7 cell line, MCF-7, was obtained from the American Type Culture Collection and used to evaluate the effects of the following drugs. • Caco 2 [Caco2] (ATCC® HTB 37™, Manassas, VA, USA) epithelial colorectal adenocarcinoma was derived from the colon at a metastatic site. The human Caco-2 cell line, Caco-2, was obtained from the American Type Culture Collection and used to evaluate the effects of the following drugs. A549 (ATCC® CCL-185™, Manassas, VA, USA), epithelial-like lung carcinoma, was derived from lung tissue at a metastatic site. The human A549 cell line, A549, was obtained from the American Type Culture Collection and used to evaluate the effects of the following drugs.
(§3) HEPG2, A549, MCF-7 and Caco-2 cells were maintained in a monolayer culture in a T-25 flask at 5% CO2 and 37 °C in DMEM (Lonza, Verviers, Belgium) and supplemented with 10% (v/v) FBS (Sigma-Aldrich Co. LLC., Burlington, VT, USA). Penicillin/streptomycin (Gibco®, Grand Island, NY, USA) was applied at 100 units/mL and 100 µg/mL, respectively.
(§4) Growth inhibition was determined by classic MTT assay. In brief, HEPG2, A549, MCF-7 and Caco-2 cells were added to a cell culture MTT assay plate at a concentration of 5 × 10^3 cells/well in 1640 medium and cultured overnight. The different treatments were added on day 1 according to the calculated doses except on the control well and standard, then incubated for 24 h. Measurement was achieved using a microplate reader (Model 550, Bio-Rad, Hercules, CA, USA).

MCF-7 cell line = assay: MTT cytotoxicity assay, MCF-7; type: cell-based; conditions: Homo sapiens, MCF7, read-out: IC50 MCF-7 Breast Cancer
Excerpt: (§5) The human HCC cell line, HEPG-2, was obtained from the American Type Culture Collection and used to evaluate the effects of the following drugs. MCF-7(ATCC® HTB-22TM, Manassas, VA, USA) breast cancer cells were derived from mammary gland or breast at a metastatic site. […] The human Caco-2 cell line, Caco-2, was obtained from the American Type Culture Collection and used to evaluate the effects of the following drugs. […], Manassas, VA, USA), epithelial-like lung carcinoma, was derived from lung tissue at a metastatic site. The human A549 cell line, A549, was obtained from the American Type Culture Collection and used to evaluate the effects of the following drugs. […] LLC., Burlington, VT, USA). Penicillin/streptomycin (Gibco®, Grand Island, NY, USA) was applied at 100 units/mL and 100 μg/mL, respectively. Growth inhibition was determined by classic MTT assay. In brief, HEPG2, A549, MCF-7 and Caco-2 cells were added to a cell culture MTT assay plate at a concentration of 5 × 10^3 cells/well in 1640 medium and cultured overnight. The different treatments were added on day 1 according to the calculated doses except on the control well and standard, then incubated for 24 h.

[4] = system: VEGFR-2 protein expression level in MCF-7 cell line; assay: Human VEGF receptor-2 ELISA in MCF-7; type: cell-based; parameters: concentration or dose not given beside the values; conditions: MCF-7, ELISA, compared to control
Experimental: (§6) Total protein was assayed using the method described by Bradford. The Human VEGF receptor-2 ELISA Kit (ab213476), (96 tests) was purchased from (abcam®, Waltham, MA, USA). The kit is a sandwich enzyme immunoassay for the in vitro quantitative measurement of human VEGFR-2 in tissue homogenates, cell lysates and other biological fluids according to the manufacturer’s instructions.

CaCo-2 cell line = assay: MTT cytotoxicity assay, CaCo-2; type: cell-based; conditions: Homo sapiens, read-out: IC50 CaCo-2 Colon Cancer
Excerpt: as §2, §3, §4

[5] = system: HepG2, MCF-7, A-549 and CaCo-2 cell lines; assay: MTT cytotoxicity assay, summary over all tested cell lines; type: cell-based, human; conditions: Homo sapiens; range over compounds and cell lines; read-out: IC50 values versus all tested cell lines (collective range)
Excerpt: as §2, §3, §4

HepG2 cell line = assay: MTT cytotoxicity assay, HepG2; type: cell-based; conditions: Homo sapiens
Excerpt: as §5

[6] = system: VEGFR-2 protein expression level in HepG2 cell line; assay: Human VEGF receptor-2 ELISA in HepG2; type: cell-based; parameters: concentration or dose not given beside the values; conditions: compared to control
Experimental: as §6

Which “VEGF 24 h % Inhibition” value ([1]; 24 h) does the source give for `Cc1ccc(N=Nc2c(N)nn3c(N)c(N=Nc4ccc(S(=O)(=O)N=C(N)N)cc4)c(N)nc23)cc1` [Compound 7, N-(Diaminomethylene)-4-((2,5,7-Triamino-3-(4-Tolyldiazenyl)Pyrazolo[1,5-a]Pyrimidin-6-yl)Diazenyl)Benzenesulfonamide] here?
The value was 51.5%.

What about the “VEGF 72 h % Inhibition” value ([1]; 72 h) of the same molecule?
The value was 70.3%.

What about the “VEGF gene expression level” value [2] of the same molecule?
Its value is “best VEGF gene expression level downregulation”.

What about the “VEGF 24 h % Inhibition” value ([3]; 24 h) of the same molecule?
Its value is 50%.

What about the “VEGF 72 h % Inhibition” value ([3]; 72 h) of the same molecule?
Its value is 62.5%.

What about the IC50 (A-549 cell line) of the same molecule?
The IC50 was 12 µM.

And the melting point?
Its melting point is 264 to 266 °C.

What about the IC50 (MCF-7 cell line) of the same molecule?
Its IC50 is 12 µM.

And the “VEGFR-2 24 h % Inhibition” value ([4]; 24 h)?
Its value is 60%.

What about the “VEGFR-2 72 h % Inhibition” value ([4]; 72 h) of the same molecule?
The value was 62.5%.

And the IC50 (CaCo-2 cell line)?
Its IC50 is 6 µM.

What about the IC50 [5] of the same molecule?
The IC50 was 6 to 50 µM.

What about the IC50 (HepG2 cell line; TPGS-coated vs uncoated niosomes vs pure compound, read-out: IC50 Hepg2 Liver Carcinoma) of the same molecule?
Its IC50 is 6 µM.

And the IC50 (HepG2 cell line; read-out: IC50 HepG2 Livercarcinoma)?
Its IC50 is 6 µM.

What about the “VEGFR-2 24 h % Inhibition” value ([6]; 24 h) of the same molecule?
Its value is 69.7%.

And the “VEGFR-2 72 h % Inhibition” value ([6]; 72 h)?
The value was 72.3%.
